Data from patent US8022206B2 (OSI Pharmaceuticals, LLC, priority 2008, dated 2011).

Columns and labels:
RON (human) = RON (human) (Homo sapiens, UniProt Q04912); experiment: RON (human) AlphaScreen kinase assay, Km of ATP; format: biochemical; conditions: AlphaScreen, Km of ATP; read-out: RON biochemical IC50
Experimental: (§1) Someone skilled in the art will appreciate that a variety of assay formats may be used to determine the activity of the compounds of this invention. For example, AlphaScreen (Amplified Luminescent Proximity Homogeneous Assay) technology was used with the kinases described below. Assay ATP concentrations for individual kinases are included in the text.
Desired compound is added in a final concentration of 1% DMSO with control being vehicle of DMSO alone. […] Enzyme is added to initiate the reaction and incubated for 30 min at RT. In subdued light, appropriate amount of PT66 donor and acceptor beads (diluted 1:260 from manufacturer's provision in a 25 mM Tris HCl (pH=7.5), 200 mM NaCl, 100 mM EDTA, 0.3% BSA buffer) are added to the wells. The plates, incubated for 1 h, are read on an AlphaQuest plate reader.

MET (human) = MET (human) (Homo sapiens, UniProt P08581); experiment: MET (human) AlphaScreen kinase assay, Km of ATP; format: biochemical; conditions: AlphaScreen, Km of ATP; read-out: Met biochemical IC50
Sequence of MET (human) (P08581 25-1390): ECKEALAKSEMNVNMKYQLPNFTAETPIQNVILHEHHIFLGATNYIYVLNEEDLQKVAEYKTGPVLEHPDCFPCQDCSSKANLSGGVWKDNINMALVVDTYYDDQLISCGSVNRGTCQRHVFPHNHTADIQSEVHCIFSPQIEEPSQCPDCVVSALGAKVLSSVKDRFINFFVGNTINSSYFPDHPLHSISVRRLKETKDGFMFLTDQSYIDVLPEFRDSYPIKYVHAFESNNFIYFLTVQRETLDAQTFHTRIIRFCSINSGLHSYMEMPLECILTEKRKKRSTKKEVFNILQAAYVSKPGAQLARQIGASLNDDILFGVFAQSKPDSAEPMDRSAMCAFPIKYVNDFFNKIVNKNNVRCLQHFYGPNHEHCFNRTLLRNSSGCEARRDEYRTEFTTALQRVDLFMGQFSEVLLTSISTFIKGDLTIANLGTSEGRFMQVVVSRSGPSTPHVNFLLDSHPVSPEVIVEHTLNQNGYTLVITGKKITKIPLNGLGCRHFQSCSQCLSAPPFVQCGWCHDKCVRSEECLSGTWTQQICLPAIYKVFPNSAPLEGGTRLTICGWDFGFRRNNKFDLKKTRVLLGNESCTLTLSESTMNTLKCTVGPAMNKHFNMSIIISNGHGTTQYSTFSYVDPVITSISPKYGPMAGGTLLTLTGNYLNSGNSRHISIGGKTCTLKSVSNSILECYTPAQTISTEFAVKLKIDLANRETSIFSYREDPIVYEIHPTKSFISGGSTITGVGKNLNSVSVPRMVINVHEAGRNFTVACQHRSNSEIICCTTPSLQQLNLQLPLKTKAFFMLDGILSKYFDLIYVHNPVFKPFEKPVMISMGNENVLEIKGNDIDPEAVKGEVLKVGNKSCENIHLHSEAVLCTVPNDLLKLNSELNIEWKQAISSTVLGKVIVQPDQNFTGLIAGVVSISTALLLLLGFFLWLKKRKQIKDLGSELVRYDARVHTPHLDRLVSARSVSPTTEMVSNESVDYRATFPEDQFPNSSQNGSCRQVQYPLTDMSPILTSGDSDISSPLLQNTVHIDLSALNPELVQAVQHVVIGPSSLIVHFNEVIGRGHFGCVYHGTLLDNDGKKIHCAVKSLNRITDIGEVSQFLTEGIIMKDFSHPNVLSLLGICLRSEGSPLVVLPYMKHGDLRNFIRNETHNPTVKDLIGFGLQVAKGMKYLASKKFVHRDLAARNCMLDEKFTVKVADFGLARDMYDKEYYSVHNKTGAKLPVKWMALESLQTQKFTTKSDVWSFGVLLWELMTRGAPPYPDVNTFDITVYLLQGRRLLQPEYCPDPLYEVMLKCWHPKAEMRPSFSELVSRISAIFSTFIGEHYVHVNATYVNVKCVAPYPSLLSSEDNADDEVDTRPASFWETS
Experimental: as §1
Desired compound is added in a final concentration of 1% DMSO with control being vehicle of DMSO alone. MET is diluted to the optimized concentration (optimized on a lot-by-lot basis) in an enzyme diluent buffer (50 mM Tris pH=7.4, 1% glycerol, 0.03% Brij35, 0.24 mM EGTA, 1 mM DTT, and 0.003% BSA). Enzyme is added to initiate the reaction and incubated for 60 min at RT. In subdued light, appropriate amount of PT66 donor and acceptor beads (diluted 1:260 from manufacturer's provision in a 25 mM Tris HCl (pH=7.5), 400 mM NaCl, 100 mM EDTA, 0.3% BSA buffer) are added to the wells. The plates, incubated for 1 h, are read on an AlphaQuest plate reader

Sequence of RON (human) (Q04912 25-1400): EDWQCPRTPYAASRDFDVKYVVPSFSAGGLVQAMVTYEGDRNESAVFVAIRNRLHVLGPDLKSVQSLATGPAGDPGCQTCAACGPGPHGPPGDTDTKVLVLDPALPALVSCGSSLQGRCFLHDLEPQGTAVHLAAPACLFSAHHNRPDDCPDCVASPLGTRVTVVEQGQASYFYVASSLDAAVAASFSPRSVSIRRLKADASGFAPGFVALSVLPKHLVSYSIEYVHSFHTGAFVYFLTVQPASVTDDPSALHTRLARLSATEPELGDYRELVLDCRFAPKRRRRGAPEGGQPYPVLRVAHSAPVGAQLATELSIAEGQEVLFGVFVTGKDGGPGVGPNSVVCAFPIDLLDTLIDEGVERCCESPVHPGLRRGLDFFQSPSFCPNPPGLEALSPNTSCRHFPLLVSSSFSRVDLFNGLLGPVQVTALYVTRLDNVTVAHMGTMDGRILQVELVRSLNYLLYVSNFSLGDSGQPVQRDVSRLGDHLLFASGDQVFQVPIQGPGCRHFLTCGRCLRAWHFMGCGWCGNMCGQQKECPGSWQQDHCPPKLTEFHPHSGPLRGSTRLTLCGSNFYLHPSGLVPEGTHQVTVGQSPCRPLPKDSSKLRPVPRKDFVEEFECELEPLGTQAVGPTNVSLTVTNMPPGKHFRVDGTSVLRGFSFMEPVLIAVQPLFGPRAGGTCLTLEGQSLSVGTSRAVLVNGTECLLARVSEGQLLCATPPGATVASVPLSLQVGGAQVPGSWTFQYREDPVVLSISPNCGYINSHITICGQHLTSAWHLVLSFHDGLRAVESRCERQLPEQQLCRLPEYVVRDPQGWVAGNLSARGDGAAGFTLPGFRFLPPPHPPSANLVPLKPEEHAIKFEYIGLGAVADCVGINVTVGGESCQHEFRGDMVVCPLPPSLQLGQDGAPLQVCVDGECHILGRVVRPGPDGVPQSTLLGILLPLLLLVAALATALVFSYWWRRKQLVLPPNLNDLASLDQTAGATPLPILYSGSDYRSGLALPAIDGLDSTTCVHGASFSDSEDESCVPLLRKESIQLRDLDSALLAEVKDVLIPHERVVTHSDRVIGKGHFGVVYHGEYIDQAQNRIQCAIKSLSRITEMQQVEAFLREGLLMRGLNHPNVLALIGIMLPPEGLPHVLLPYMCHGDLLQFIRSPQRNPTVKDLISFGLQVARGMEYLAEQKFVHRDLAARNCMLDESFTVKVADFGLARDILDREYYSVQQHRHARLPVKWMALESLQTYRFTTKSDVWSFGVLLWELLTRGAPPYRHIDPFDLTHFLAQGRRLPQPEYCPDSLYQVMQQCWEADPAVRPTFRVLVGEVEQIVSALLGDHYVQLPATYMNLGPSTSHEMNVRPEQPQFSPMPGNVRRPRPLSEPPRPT

IC50 (RON (human)) [nM] | IC50 (MET (human)) [nM] | SMILES
500 to 5000 | 500 to 5000 | C[C@@H](Oc1c(N)ncc2c(-c3ccc(C(=O)N4CCN(CCOCCO)CC4)cc3)coc12)c1c(Cl)ccc(F)c1Cl [Example 301, (4-{6-Amino-7-[(R)-1-(2,6-dichloro-3-fluoro-phenyl)ethoxy]furo[3,2-c]pyridin-3-yl}phenyl)-{4-[2-(2-hydroxyethoxy)ethyl]piperazin-1-yl}methanone]
500 to 5000 | < 500 | CC(Cc1ccc(F)cc1)Oc1c(N)ncc2c(-c3cnn(C4CCNCC4)c3)coc12 (stereo not shown) [Example 425, 7-[2-(4-Fluorophenyl)-1-methylethoxy]-3-(1-piperidin-4-yl-1H-pyrazol-4-yl)furo[3,2-c]pyridin-6-ylamine]
< 500 | < 500 | C[C@@H](Oc1c(N)ncc2c(C3=CCN(C(=O)[C@@H](N)CO)CC3)coc12)c1c(Cl)ccc(F)c1Cl [Example 254, (2S)-2-Amino-1-[4-{6-amino-7-[(1R)-1-(2,6-dichloro-3-fluoro-phenyl)ethoxy]furo[3,2-c]pyridin-3-yl}-3,6-dihydropyridin-1(2H)-yl]-3-hydroxypropan-1-one]
5000 to 20000 | < 500 | CCNC(=O)c1coc2c(O[C@H](C)c3c(Cl)ccc(F)c3Cl)c(N)ncc12 [Example 179, 6-Amino-7-[(R)-1-(2,6-dichloro-3-fluorophenyl)ethoxy]furo[3,2-c]pyridine-3-carboxylic acid ethylamide]
500 to 5000 | 500 to 5000 | C[C@@H](Oc1c(N)ncc2c(-c3ccc(C=O)s3)coc12)c1c(Cl)ccc(F)c1Cl [Example 210, 5-{6-Amino-7-[(R)-1-(2,6-dichloro-3-fluorophenyl)ethoxy]-furo[3,2-c]pyridin-3-yl}-thiophene-2-carbaldehyde]
500 to 5000 | 500 to 5000 | C[C@@H](Oc1c(N)ncc2c(-c3ccc(CN4CCSCC4)s3)coc12)c1c(Cl)ccc(F)c1Cl [Example 219, 7-[(R)-1-(2,6-Dichloro-3-fluorophenyl)ethoxy]-3-(5-thiomorpholin-4-ylmethylthiophen-2-yl)furo[3,2-c]pyridin-6-ylamine]
500 to 5000 | 500 to 5000 | C[C@@H](Oc1c(N)ncc2c(-c3ccsc3)coc12)c1c(Cl)ccc(F)c1Cl [Example 134, 7-[(R)-(2,6-Dichloro-3-fluorophenyl)ethoxy]-3-thiophen-3-ylfuro[3,2-c]pyridin-6-ylamine]
500 to 5000 | < 500 | CC(=O)N1CCN(c2ccc(-c3coc4c(O[C@H](C)c5c(Cl)ccc(F)c5Cl)c(N)ncc34)cn2)CC1 [Example 281, 1-[4-(5-{6-Amino-7-[(R)-1-(2,6-dichloro-3-fluorophenyl)ethoxy]furo[3,2-c]pyridin-3-yl}-pyridin-2-yl)-piperazin-1-yl]ethanone]
500 to 5000 | 500 to 5000 | C[C@@H](Oc1c(N)ncc2c(-c3csc(C(N)=O)c3)coc12)c1c(Cl)ccc(F)c1Cl [Example 318, 4-{6-Amino-7-[(R)-1-(2,6-dichloro-3-fluorophenyl)ethoxy]furo[3,2-c]pyridin-3-yl}thiophene-2-carboxamide]
< 500 | < 500 | C[C@H](N)C(=O)N1CC=C(c2coc3c(O[C@H](C)c4c(Cl)ccc(F)c4Cl)c(N)ncc23)CC1 [Example 251, (2S)-2-Amino-1-[4-{6-amino-7-[(1R)-1-(2,6-dichloro-3-fluoro-phenyl)ethoxy]furo[3,2-c]pyridin-3-yl}-3,6-dihydropyridin-1(2H)-yl]propan-1-one]
500 to 5000 | 500 to 5000 | C[C@@H](Oc1c(N)ncc2c(-c3ccc[nH]3)coc12)c1c(Cl)ccc(F)c1Cl [Example 133, 7-[(R)-1-(2,6-Dichloro-3-fluorophenyl)ethoxy]-3-(1H-pyrrol-2-yl)furo[3,2-c]pyridin-6-amine]
500 to 5000 | < 500 | C[C@@H](Oc1c(N)ncc2c(-c3cnn(C4CCNCC4)c3)c(Br)oc12)c1c(Cl)ccc(F)c1Cl [Example 167, 2-Bromo-7-[(R)-1-(2,6-dichloro-3-fluorophenyl)ethoxy]-3-(1-piperidin-4-yl-1H-pyrazol-4-yl)-furo[3,2-c]pyridin-6-ylamine]
500 to 5000 | < 500 | CC(Oc1c(N)ncc2c(C3=CCN(C(N)=O)CC3)coc12)c1c(Br)ccc(F)c1Cl (stereo not shown) [Example 457, 4-{6-Amino-7-[1-(6-bromo-2-chloro-3-fluorophenyl)ethoxy]furo[3,2-c]pyridin-3-yl}-3,6-dihydro-2H-pyridine-1-carboxamide]
500 to 5000 | < 500 | Cc1ccnc(C)c1C(C)Oc1c(N)ncc2c(-c3cnn(C4CCNCC4)c3)coc12 (stereo not shown) [Example 362, 7-[1-(2,4-Dimethylpyridin-3-yl)ethoxy]-3-(1-piperidin-4-yl-1H-pyrazol-4-yl)furo[3,2-c]pyridin-6-ylamine]
< 500 | < 500 | C[C@@H]1CN(Cc2cc(-c3coc4c(O[C@H](C)c5c(Cl)ccc(F)c5Cl)c(N)ncc34)cs2)C[C@H](C)N1 [Example 305, 7-[(R)-1-(2,6-Dichloro-3-fluorophenyl)ethoxy]-3-[5-(cis-3,5-dimethylpiperazin-1-ylmethyl)thiophen-3-yl]-furo[3,2-c]pyridin-6-ylamine]
500 to 5000 | 500 to 5000 | C[C@@H](Oc1c(N)ncc2c(-c3cnn(C4CCN(C(N)=O)CC4)c3)coc12)c1c(Cl)ccc(F)c1Cl [Example 272, 4-(4-{6-Amino-7-[(1R)-1-(2,6-dichloro-3-fluorophenyl)ethoxy]furo[3,2-c]pyridin-3-yl}-1H-pyrazol-1-yl)piperidine-1-carboxamide]
500 to 5000 | 500 to 5000 | C[C@@H](Oc1c(N)ncc2c(-c3ccc(C(=O)NCCO)cc3)coc12)c1c(Cl)ccc(F)c1Cl [Example 287, 4-{6-Amino-7-[(R)-1-(2,6-dichloro-3-fluorophenyl)ethoxy]furo[3,2-c]pyridin-3-yl}-N-(2-hydroxyethyl)benzamide]
500 to 5000 | 500 to 5000 | CCCOC(=O)N1CC=C(c2coc3c(O[C@H](C)c4c(Cl)ccc(F)c4Cl)c(N)ncc23)CC1 [Example 52, 4-{6-Amino-7-[(R)-1-(2,6-dichloro-3-fluorophenyl)-ethoxy]-furo[3,2-c]pyridin-3-yl}-3,6-dihydro-2H-pyridine-1-carboxylic acid propyl ester]
< 500 | < 500 | CC(Oc1c(N)ncc2c(-c3cnn(C4CCNCC4)c3)coc12)c1c(Cl)c(F)cc(OC2CNC2)c1Cl (stereo not shown) [Example 159, 7-{1-[3-(Azetidin-3-yloxy)-2,6-dichloro-5-fluorophenyl]ethoxy}-3-[1-(piperidin-4-yl)-1H-pyrazol-4-yl]furo[3,2-c]pyridin-6-amine]
500 to 5000 | < 500 | C[C@@H](Oc1c(N)ncc2c(C3=CCN(C(=O)Oc4ccccc4)CC3)coc12)c1c(Cl)ccc(F)c1Cl [Example 55, 4-{6-Amino-7-[(R)-1-(2,6-dichloro-3-fluorophenyl)-ethoxy]-furo[3,2-c]pyridin-3-yl}-3,6-dihydro-2H-pyridine-1-carboxylic acid phenyl ester]
500 to 5000 | 500 to 5000 | C[C@@H](Oc1c(N)ncc2c(C3=CCN(/C(N)=N\C#N)CC3)coc12)c1c(Cl)ccc(F)c1Cl [Example 197, 4-{6-Amino-7-[(R)-1-(2,6-dichloro-3-fluorophenyl)ethoxy]-furo[3,2-c]pyridin-3-yl}-N-cyano-3,6-dihydro-2H-pyridine-1-carboxamidine]
500 to 5000 | 500 to 5000 | COCCCNC(=O)c1coc2c(O[C@H](C)c3c(Cl)ccc(F)c3Cl)c(N)ncc12 [Example 191, 6-Amino-7-[(R)-1-(2,6-dichloro-3-fluorophenyl)ethoxy]furo[3,2-c]pyridine-3-carboxylic acid (3-methoxypropyl)amide]
< 500 | 500 to 5000 | C[C@@H](Oc1c(N)ncc2c(C3=CCCC(N)C3)coc12)c1c(Cl)ccc(F)c1Cl (stereo partly drawn) [Example 145, 3-(5-Aminocyclohex-1-enyl)-7-[(R)-1-(2,6-dichloro-3-fluoro-phenyl)ethoxy]furo[3,2-c]pyridin-6-ylamine]
5000 to 20000 | 500 to 5000 | C[C@@H](Oc1c(N)ncc2c(-c3ccc([N+](=O)[O-])nc3)coc12)c1c(Cl)ccc(F)c1Cl [Example 119, 7-[(R)-1-(2,6-Dichloro-3-fluorophenyl)ethoxy]-3-(6-nitropyridin-3-yl)furo[3,2-c]pyridin-6-ylamine]
500 to 5000 | < 500 | CC(Oc1c(N)ncc2c(-c3cnn(C4CCNCC4)c3)coc12)c1c(F)cccc1Cl (stereo not shown) [Example 401, 7-[1-(2-Chloro-6-fluorophenyl)ethoxy]-3-(1-piperidin-4-yl-1H-pyrazol-4-yl)furo[3,2-c]pyridin-6-ylamine]

SMILES | IC50 (RON (human)) [nM] | IC50 (MET (human)) [nM]
C[C@@H](Oc1c(N)ncc2c(C3=CC4CCC(C3)N4C)coc12)c1c(Cl)ccc(F)c1Cl (stereo partly drawn) [Example 164, 7-[(1R)-1-(2,6-Dichloro-3-fluorophenyl)ethoxy]-3-(8-methyl-8-azabicyclo[3.2.1]oct-2-en-3-yl)furo[3,2-c]pyridin-6-amine] | < 500 | < 500
